Source: PubChem BioAssay (NCI)
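Cultured in 96-well plates, cells were exposed to test compound for 48 hours across five concentrations. TGI: concentration producing complete growth inhibition.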

What was measured:
Assay in all cases: DTP human tumour cell line panel, 48 h
[1] = tested on: ACHN renal
[2] = tested on: CCRF-CEM leukemia
[3] = tested on: MOLT-4 leukemia
[4] = tested on: A498 renal
[5] = tested on: HOP-92 NSCLC
[6] = tested on: SNB-19 CNS
[7] = tested on: NCI-H522 lung
[8] = tested on: KM20L2 colon
[9] = tested on: M19-MEL melanoma
[10] = tested on: DMS 114 small cell lung
[11] = tested on: DLD-1 colon
[12] = tested on: HOP-18 NSCLC
[13] = tested on: RXF-631 renal
[14] = tested on: XF 498 CNS
[15] = tested on: DMS 273 small cell lung
[16] = tested on: LXFL 529 NSCLC
[17] = tested on: SNB-78 CNS

In the case of `Cc1ccc(N2CCC3(CC2)OCCO3)cc1`, the TGI [1] is reported as > 100 µM, the TGI [2] is reported as > 100 µM and the TGI [3] is reported as > 100 µM. The TGI [4] was > 100 µM, the TGI [5] was > 100 µM and the TGI [6] was > 100 µM. For the same compound, the TGI [7] was > 100 µM.

With `O=C(Cc1ccc(Cl)cc1)Nc1ccc2oc(-c3ccccc3)nc2c1` the TGI [1] was > 100 µM, the TGI [2] was > 100 µM and the TGI [3] was > 100 µM. For the same compound, the TGI [4] was > 100 µM, the TGI [5] was > 100 µM and the TGI [6] was > 100 µM. For the same compound, the TGI [7] was > 100 µM.

`CC(O)c1ccc[n+](Cc2ccccc2)c1` (configuration not stated) was tested, and the TGI [8] was > 400 µM, the TGI [9] was > 400 µM and the TGI [1] was > 400 µM. The TGI [2] was > 400 µM, the TGI [3] was > 400 µM and the TGI [10] was > 400 µM. For the same compound, the TGI [5] was > 400 µM, the TGI [11] was > 400 µM and the TGI [12] was > 400 µM. For the same compound, the TGI [6] was > 400 µM, the TGI [13] was > 400 µM and the TGI [14] was > 400 µM. The TGI [15] was > 400 µM, the TGI [16] was > 400 µM and the TGI [7] was > 400 µM.

With `CCOc1cc2c(cc1O)CC[C@@H]1[C@@H]2CC[C@]2(C)C(N)CC[C@@H]12` (some centres not stated) the TGI [1] was 26.2 µM, the TGI [2] was 18.2 µM and the TGI [3] was 24.7 µM. For the same compound, the TGI [4] was 18.7 µM, the TGI [5] was 27 µM and the TGI [6] was 28.2 µM. It also gave a TGI [7] of 11.9 µM.

For `CC1=C(C)C1[N+](=O)[O-]`, the TGI [1] was > 100 µM, the TGI [2] was > 100 µM and the TGI [3] was > 100 µM. The TGI [4] was > 100 µM, the TGI [5] was > 100 µM and the TGI [6] was > 100 µM. The TGI [7] was > 100 µM.

With `O=C1C=CC2(O)OCCN(CCO)C2=C1` (configuration not stated) (tested in a mixture with another compound) the TGI [1] was > 100 µM, the TGI [2] was > 100 µM and the TGI [3] was > 100 µM. The TGI [4] was > 100 µM, the TGI [5] was > 100 µM and the TGI [6] was > 100 µM. For the same compound, the TGI [7] was > 100 µM.

With `CC1=C(C(=O)N(C(C)C)C(C)C)CC(C(=O)N(C(C)C)C(C)C)=C(C)N1` the TGI [1] was > 100 µM, the TGI [2] was > 100 µM and the TGI [3] was > 100 µM. The TGI [4] was > 100 µM, the TGI [5] was > 100 µM and the TGI [6] was > 100 µM. For the same compound, the TGI [7] was > 100 µM.

In the case of `Nc1nc2n[nH]nc2c(=O)[nH]1`, the TGI [8] is reported as > 100 µM, the TGI [1] is reported as > 59.7 µM and the TGI [2] is reported as > 100 µM. For the same compound, the TGI [3] was 4.35 µM, the TGI [10] was 54.7 µM and the TGI [4] was 32.8 µM. For the same compound, the TGI [17] was > 100 µM, the TGI [5] was 38.5 µM and the TGI [11] was > 100 µM. For the same compound, the TGI [12] was 85.3 µM, the TGI [6] was > 100 µM and the TGI [15] was 18.2 µM. For the same compound, the TGI [16] was > 100 µM and the TGI [7] was 40.9 µM.

For `Nc1ncnc2c1ncn2C1OC(CO)C(O)C(O)C1O` (configuration not stated), the TGI [1] was > 100 µM, the TGI [2] was > 100 µM and the TGI [3] was > 100 µM. For the same compound, the TGI [4] was > 100 µM, the TGI [5] was > 100 µM and the TGI [6] was > 100 µM. For the same compound, the TGI [7] was > 100 µM.

With `N#CCCN(c1ccc(C=Nc2ccccc2Cl)cc1)S(=O)(=O)c1ccccc1` the TGI [8] was > 100 µM, the TGI [9] was > 100 µM and the TGI [1] was > 100 µM. For the same compound, the TGI [3] was > 100 µM, the TGI [10] was > 100 µM and the TGI [4] was > 100 µM. The TGI [17] was > 100 µM, the TGI [5] was > 100 µM and the TGI [11] was > 100 µM. The TGI [12] was > 100 µM, the TGI [6] was > 100 µM and the TGI [13] was > 100 µM. The TGI [14] was > 100 µM, the TGI [15] was > 100 µM and the TGI [16] was > 100 µM. For the same compound, the TGI [7] was > 100 µM.

For `CC1=NN(C(=O)CC(=O)NC(=O)CC(=O)Nc2ccccc2F)C(=O)C1N=Nc1ccc([N+](=O)[O-])cc1` (configuration not stated), the TGI [8] was > 100 µM, the TGI [9] was 92.8 µM and the TGI [1] was > 100 µM. It also gave a TGI [2] of 63.6 µM, a TGI [3] of 77.7 µM and a TGI [10] of 41 µM. For the same compound, the TGI [4] was 94.8 µM, the TGI [17] was > 100 µM and the TGI [5] was > 100 µM. For the same compound, the TGI [11] was > 100 µM, the TGI [12] was > 100 µM and the TGI [6] was > 100 µM. For the same compound, the TGI [13] was > 100 µM, the TGI [14] was 70.9 µM and the TGI [15] was > 100 µM. For the same compound, the TGI [16] was > 100 µM.

`COc1ccc(N2C(=O)C3c4[nH]c5ccccc5c4C4CC(C)CC(C)C4C3C2=O)cc1` (configuration not stated) was tested, and the TGI [8] was > 100 µM, the TGI [9] was > 100 µM and the TGI [1] was > 100 µM. The TGI [2] was > 100 µM, the TGI [3] was > 100 µM and the TGI [10] was > 100 µM. The TGI [4] was > 100 µM, the TGI [17] was > 100 µM and the TGI [5] was > 100 µM. The TGI [11] was > 100 µM, the TGI [12] was > 100 µM and the TGI [6] was > 100 µM. For the same compound, the TGI [14] was > 100 µM, the TGI [15] was > 100 µM and the TGI [16] was > 100 µM. The TGI [7] was > 100 µM.

For `C=CC[C@@]1([C@H](C=C)COCc2ccc(OC)cc2)CC[C@]2(C)OC(C)(C)[C@@H](c3ccccc3)N2C1=S`, the TGI [1] was > 100 µM, the TGI [2] was > 100 µM and the TGI [3] was > 100 µM. For the same compound, the TGI [4] was > 100 µM, the TGI [5] was > 100 µM and the TGI [6] was > 100 µM. The TGI [7] was > 100 µM.

With `CCOC(=O)[C@@H]1CCN2CN(c3ccc(OC)cc3)N=C(c3ccccc3)[C@@]12c1ccccc1` the TGI [1] was 91.5 µM, the TGI [2] was > 100 µM and the TGI [3] was > 100 µM. For the same compound, the TGI [4] was 53.5 µM, the TGI [5] was 27.9 µM and the TGI [6] was > 100 µM. It also gave a TGI [7] of 49.5 µM.

With `CC(C)(C)OC(=O)NC(CCC(=O)OCc1ccccc1)C(=O)NCCCO` (configuration not stated) the TGI [1] was > 100 µM, the TGI [2] was > 100 µM and the TGI [3] was > 100 µM. For the same compound, the TGI [4] was > 100 µM, the TGI [5] was > 100 µM and the TGI [6] was > 100 µM. For the same compound, the TGI [7] was > 100 µM.

For `O=P1(c2ccccc2)C(c2ccccc2)=CC=C1c1ccccc1`, the TGI [1] was > 100 µM, the TGI [2] was 62.7 µM and the TGI [3] was 44 µM. The TGI [4] was > 100 µM, the TGI [5] was 51.1 µM and the TGI [6] was > 100 µM. It also gave a TGI [7] of 65.2 µM.

In the case of `COc1ccc(NC(=O)/C(=N/NC(N)=S)C2C(=O)NC(=S)NC2=O)c(OC)c1`, the TGI [1] is reported as > 100 µM, the TGI [2] is reported as > 100 µM and the TGI [3] is reported as > 100 µM. For the same compound, the TGI [4] was > 100 µM, the TGI [5] was > 100 µM and the TGI [6] was > 100 µM. For the same compound, the TGI [7] was > 100 µM.

With `CCCCCCCCCCCCCCCCOCC(CP(=O)([O-])OCC[n+]1ccccc1)OC` (configuration not stated) the TGI [9] was 25.2 µM, the TGI [2] was 25.6 µM and the TGI [3] was 18.9 µM. The TGI [10] was 26.5 µM, the TGI [4] was 25.5 µM and the TGI [17] was 31.1 µM. The TGI [5] was 5.97 µM, the TGI [11] was 11.1 µM and the TGI [6] was 21.6 µM. For the same compound, the TGI [13] was 28.9 µM, the TGI [14] was 24.7 µM and the TGI [15] was 5.63 µM. The TGI [16] was 23.5 µM and the TGI [7] was 39.5 µM.

With `NC(=S)N/N=C1/CCCC2CCCC[C@@H]12` (some centres not stated) the TGI [1] was > 100 µM, the TGI [2] was > 100 µM and the TGI [3] was > 100 µM. For the same compound, the TGI [4] was > 100 µM, the TGI [5] was > 100 µM and the TGI [6] was > 100 µM. For the same compound, the TGI [7] was > 100 µM.
